Measured values: patent US10806785B2, “Immunomodulator compounds and methods of use” (Incyte Corporation, priority 2016, dated 2020)

Molecular target: PD-1/PD-L1 (Homo sapiens (Human), UniProt Q9NZQ7)
Test: PD-1/PD-L1 binding assay (HTRF)
Protocol: The assays were conducted in a standard black 384-well polystyrene plate with a final volume of 20 μL. Inhibitors were first serially diluted in DMSO and then added to the plate wells before the addition of other reaction components. The final concentration of DMSO in the assay was 1%. The assays were carried out at 25° C. in the PBS buffer (pH 7.4) with 0.05% Tween-20 and 0.1% BSA. Recombinant human PD-L1 protein (19-238) with a His-tag at the C-terminus was purchased from AcroBiosystems (PD1-H5229). Recombinant human PD-1 protein (25-167) with Fc tag at the C-terminus was also purchased from AcroBiosystems (PD1-H5257). PD-L1 and PD-1 proteins were diluted in the assay buffer and 10 μL was added to the plate well. Plates were centrifuged and proteins were preincubated with inhibitors for 40 minutes. The incubation was followed by the addition of 10 μL of HTRF detection buffer supplemented with Europium cryptate-labeled anti-human IgG (PerkinElmer-AD0212) specific for Fc and anti-His antibody conjugated to SureLight®-Allophycocyanin (APC, PerkinElmer-AD0059H). After centrifugation, the plate was incubated at 25° C. for 60 min. before reading on a PHERAstar FS plate reader (665 nm/620 nm ratio). Final concentrations in the assay were […], 10 nM PD-L1, 1 nM europium anti-human IgG and 20 nM anti-His-Allophycocyanin. IC50 determination was performed by fitting the curve of percent control activity versus the log of the inhibitor concentration using the GraphPad Prism 5.0 software.

Sequence of PD-1/PD-L1 (Q9NZQ7 19-238): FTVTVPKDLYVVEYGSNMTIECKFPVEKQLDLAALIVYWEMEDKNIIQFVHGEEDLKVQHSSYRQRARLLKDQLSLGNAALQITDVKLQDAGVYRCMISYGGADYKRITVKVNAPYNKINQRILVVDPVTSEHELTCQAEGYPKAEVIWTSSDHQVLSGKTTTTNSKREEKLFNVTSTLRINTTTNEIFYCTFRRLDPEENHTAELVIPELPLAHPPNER

| SMILES | IC50 [nM] |
| --- | --- |
| Cc1c(NC(=O)c2nc3c(n2C)CCN(C[C@H](C)O)C3)cccc1-c1cccc(NC(=O)c2nc3c(n2C)CCN(C2CCC2)C3)c1Cl [Example 44, (S)—N-(2-chloro-3′-(5-(2-hydroxypropyl)-1-methyl-4,5,6,7-tetrahydro-1H-imidazo[4,5-c]pyridine-2-carboxamido)-2′-methylbiphenyl-3-yl)-5-cyclobutyl-1-methyl-4,5,6,7-tetrahydro-1H-imidazo[4,5-c]pyridine-2-carboxamide] | ≤ 10 |
| CCC1(C(=O)O)CCC(N2CCc3c(nc(C(=O)Nc4cccc(-c5cccc(NC(=O)c6nc7c(n6C)CCN(C6CCOCC6)C7)c5Cl)c4C)n3C)C2)CC1 (stereo not shown) [Example 112, 4-(2-((2′-chloro-2-methyl-3′-(1-methyl-5-(tetrahydro-2H-pyran-4-yl)-4,5,6,7-tetrahydro-1H-imidazo[4,5-c]pyridine-2-carboxamido)-[1,1′-biphenyl]-3-yl)carbamoyl)-1-methyl-1,4,6,7-tetrahydro-5H-imidazo[4,5-c]pyridin-5-yl)-1-ethylcyclohexane-1-carboxylic acid] | ≤ 10 |
| Cn1c(C(=O)Nc2cccc(-c3cccc(NC(=O)c4nc5c(n4C)CCN(C4CCC4)C5)c3Cl)c2Cl)nc2c1CCN(CC13CCC(C(=O)O)(CC1)C3)C2 [Compound 178, 4-((2-(2,2′-dichloro-3′-(5-cyclobutyl-1-methyl-4,5,6,7-tetrahydro-1H-imidazo[4,5-c]pyridine-2-carboxamido)biphenyl-3-ylcarbamoyl)-1-methyl-6,7-dihydro-1H-imidazo[4,5-c]pyridin-5(4H)-yl)methyl)bicyclo[2.2.1]heptane-1-carboxylic acid] | ≤ 10 |
| Cc1c(NC(=O)c2nc3c(n2C)CCN(C)C3)cccc1-c1cccc(NC(=O)c2nc3c(n2C)CCN(C2CCC(C)(C(=O)O)CC2)C3)c1Cl (stereo not shown) [Example 118, 4-(2-((2-chloro-3′-(1,5-dimethyl-4,5,6,7-tetrahydro-1H-imidazo[4,5-c]pyridine-2-carboxamido)-2′-methyl-[1,1′-biphenyl]-3-yl)carbamoyl)-1-methyl-1,4,6,7-tetrahydro-5H-imidazo[4,5-c]pyridin-5-yl)-1-methylcyclohexane-1-carboxylic acid] | ≤ 10 |
| Cn1c(C(=O)Nc2cccc(-c3cccc(NC(=O)c4nc5c(n4C)CCN(C4CCOCC4)C5)c3Cl)c2Cl)nc2c1CCN(CC13CCC(C(=O)O)(CC1)C3)C2 [Compound 179, 4-((2-(2,2′-dichloro-3′-(1-methyl-5-(tetrahydro-2H-pyran-4-yl)-4,5,6,7-tetrahydro-1H-imidazo[4,5-c]pyridine-2-carboxamido)biphenyl-3-ylcarbamoyl)-1-methyl-6,7-dihydro-1H-imidazo[4,5-c]pyridin-5(4H)-yl)methyl)bicyclo[2.2.1]heptane-1-carboxylic acid] | 10 to 100 |
| CCN(C)CC(=O)N1Cc2nc(-c3cccc(-c4cccc(NC(=O)c5nc6c(n5C)CCN(C5CCC(C)(C(=O)O)CC5)C6)c4C)c3C)oc2C1 (stereo not shown) [Compound 173, 4-(2-((3′-(5-(N-ethyl-N-methylglycyl)-5,6-dihydro-4H-pyrrolo[3,4-d]oxazol-2-yl)-2,2′-dimethyl-[1,1′-biphenyl]-3-yl)carbamoyl)-1-methyl-1,4,6,7-tetrahydro-5H-imidazo[4,5-c]pyridin-5-yl)-1-methylcyclohexane-1-carboxylic acid] | ≤ 10 |
| Cn1c(C(=O)Nc2cccc(-c3cccc(NC(=O)c4nc5c(n4C)CCN(C[C@H]4CC[C@@H](C(=O)O)CC4)C5)c3Cl)c2Cl)nc2c1CCN(CCO)C2 [Example 74, cis-4-((2-((2,2′-dichloro-3′-(5-(2-hydroxyethyl)-1-methyl-4,5,6,7-tetrahydro-1H-imidazo[4,5-c]pyridine-2-carboxamido)-[1,1′-biphenyl]-3-yl)carbamoyl)-1-methyl-1,4,6,7-tetrahydro-5H-imidazo[4,5-c]pyridin-5-yl)methyl)cyclohexane-1-carboxylic acid] | ≤ 10 |
| Cc1c(NC(=O)c2nc3c(n2C)CCN(C)C3)cccc1-c1cccc(NC(=O)c2nc3c(n2C)CCN(CC24CCC(C(=O)O)(CC2)C4)C3)c1Cl [Example 119, 4-((2-((2-chloro-3′-(1,5-dimethyl-4,5,6,7-tetrahydro-1H-imidazo[4,5-c]pyridine-2-carboxamido)-2′-methyl-[1,1′-biphenyl]-3-yl)carbamoyl)-1-methyl-1,4,6,7-tetrahydro-5H-imidazo[4,5-c]pyridin-5-yl)methyl)bicyclo[2.2.1]heptane-1-carboxylic acid] | ≤ 10 |
| CC(C)N1CCc2c(nc(C(=O)Nc3cccc(-c4cccc(NC(=O)c5nc6c(n5C)CCN(CC57CCC(C(=O)O)(CC5)C7)C6)c4Cl)c3Cl)n2C)C1 [Compound 177, 4-((2-(2,2′-dichloro-3′-(5-isopropyl-1-methyl-4,5,6,7-tetrahydro-1H-imidazo[4,5-c]pyridine-2-carboxamido)biphenyl-3-ylcarbamoyl)-1-methyl-6,7-dihydro-1H-imidazo[4,5-c]pyridin-5(4H)-yl)methyl)bicyclo[2.2.1]heptane-1-carboxylic acid] | ≤ 10 |
| Cn1c(C(=O)Nc2cccc(-c3cccc(NC(=O)c4nc5c(n4C)CCN(CC46CCC(C(=O)O)(CC4)C6)C5)c3Cl)c2Cl)nc2c1CCN(CCO)C2 [Compound 180, 4-((2-(2,2′-dichloro-3′-(5-(2-hydroxyethyl)-1-methyl-4,5,6,7-tetrahydro-1H-imidazo[4,5-c]pyridine-2-carboxamido)biphenyl-3-ylcarbamoyl)-1-methyl-6,7-dihydro-1H-imidazo[4,5-c]pyridin-5(4H)-yl)methyl)bicyclo[2.2.1]heptane-1-carboxylic acid] | ≤ 10 |
| CCC1(C(=O)O)CCC(N2CCc3c(nc(C(=O)Nc4cccc(-c5cccc(NC(=O)c6nc7c(n6C)CCN(C6CCOCC6)C7)c5Cl)c4Cl)n3C)C2)CC1 (stereo not shown) [Example 99, 4-(2-((2,2′-dichloro-3′-(1-methyl-5-(tetrahydro-2H-pyran-4-yl)-4,5,6,7-tetrahydro-1H-imidazo[4,5-c]pyridine-2-carboxamido)-[1,1′-biphenyl]-3-yl)carbamoyl)-1-methyl-1,4,6,7-tetrahydro-5H-imidazo[4,5-c]pyridin-5-yl)-1-ethylcyclohexane-1-carboxylic acid] | ≤ 10 |
| C[C@H](O)CN1CCc2c(nc(C(=O)Nc3cccc(-c4cccc(NC(=O)c5nc6c(n5C)CCN(C)C6)c4C#N)c3Cl)n2C)C1 [Example 39, (S)—N-(2-chloro-2′-cyano-3′-(1,5-dimethyl-4,5,6,7-tetrahydro-1H-imidazo[4,5-c]pyridine-2-carboxamido)biphenyl-3-yl)-5-(2-hydroxypropyl)-1-methyl-4,5,6,7-tetrahydro-1H-imidazo[4,5-c]pyridine-2-carboxamide] | ≤ 10 |
| Cc1c(NC(=O)c2nc3c(n2C)CCN(C2CCC(O)CC2)C3)cccc1-c1cccc(NC(=O)c2nc3c(n2C)CCN(C[C@H]2CC[C@@H](C(=O)O)CC2)C3)c1Cl (single isomer, unassigned) [Compound 138-1, cis-4-((2-((2-chloro-3′-(5-(4-hydroxycyclohexyl)-1-methyl-4,5,6,7-tetrahydro-1H-imidazo[4,5-c]pyridine-2-carboxamido)-2′-methyl-[1,1′-biphenyl]-3-yl)carbamoyl)-1-methyl-1,4,6,7-tetrahydro-5H-imidazo[4,5-c]pyridin-5-yl)methyl)cyclohexane-1-carboxylic acid] | ≤ 10 |
| Cc1c(NC(=O)c2nc3c(n2C)CCN(C2CCC(O)CC2)C3)cccc1-c1cccc(NC(=O)c2nc3c(n2C)CCN(C2CCC(C)(C(=O)O)CC2)C3)c1Cl (stereo not shown) [Compound 140, 4-(2-((2-chloro-3′-(5-(4-hydroxycyclohexyl)-1-methyl-4,5,6,7-tetrahydro-1H-imidazo[4,5-c]pyridine-2-carboxamido)-2′-methyl-[1,1′-biphenyl]-3-yl)carbamoyl)-1-methyl-1,4,6,7-tetrahydro-5H-imidazo[4,5-c]pyridin-5-yl)-1-methylcyclohexane-1-carboxylic acid] | ≤ 10 |
| Cc1c(NC(=O)c2cc(CN3CC[C@@H](O)C3)cn(C)c2=O)cccc1-c1cccc(NC(=O)c2nc3c(n2C)CCN(C[C@H](C)O)C3)c1Cl [Example 51, N-(2-chloro-3′-(5-(((R)-3-hydroxypyrrolidin-1-yl)methyl)-1-methyl-2-oxo-1,2-dihydropyridine-3-carboxamido)-2′-methylbiphenyl-3-yl)-5-((S)-2-hydroxypropyl)-1-methyl-4,5,6,7-tetrahydro-1H-imidazo[4,5-c]pyridine-2-carboxamide] | ≤ 10 |
| Cc1c(NC(=O)c2nc3c(n2C)CCN(C[C@H]2CC[C@H](C(=O)O)CC2)C3)cccc1-c1cccc(NC(=O)c2nc3c(n2C)CCN(C2CCOCC2)C3)c1Cl [Example 110, trans-4-((2-((2′-chloro-2-methyl-3′-(1-methyl-5-(tetrahydro-2H-pyran-4-yl)-4,5,6,7-tetrahydro-1H-imidazo[4,5-c]pyridine-2-carboxamido)-[1,1′-biphenyl]-3-yl)carbamoyl)-1-methyl-1,4,6,7-tetrahydro-5H-imidazo[4,5-c]pyridin-5-yl)methyl)cyclohexane-1-carboxylic acid] | ≤ 10 |
